Measured values reported in patent publication US20110152313A1 (MACQUARIE UNIVERSITY, priority 2008, published 2011).
≈ marks a conversion by molar mass, not a printed value.

What was measured:
YANK2 = YANK2 (Homo sapiens, UniProt Q9NY57); assay: kinase binding constant, 11-point dose response (T7 phage, qPCR); settings: >30 = no inhibition at highest concentration tested
Procedure: (§1) Kinase inhibition studies were performed by methods well known in the prior art (Fabian, M. A. et al. Nat. Biotechnol. 2005, 23, 329). Briefly, kinase-tagged T7 phage strains were prepared in an E. coli host derived from the BL21 strain. E. coli were grown to log-phase and infected with T7 phage and incubated with shaking at 32° C. until lysis. The lysates were centrifuged and filtered to remove cell debris. […] The liganded beads were blocked with excess biotin and washed with blocking buffer (SeaBlock (Pierce); 1% BSA, 0.05% Tween 20, 1 mM DTT) to remove unbound ligand and to reduce non-specific binding. […] All reactions were performed in polystyrene 96-well plates in a final volume of 0.135 ml. […] The kinase concentration in the eluates was measured by qPCR.
(§2) An 11-point 3-fold serial dilution of each test compound (from 30 μM to 0.5 nM) was prepared in 100% DMSO at 100× final test concentration and subsequently diluted to 1× in the assay (final DMSO concentration=1%). Binding constants (KDS) were calculated with a standard dose-response curve using a 5-point sigmoidal (Hill) equation.

DYRK1A = DYRK1A (Homo sapiens, UniProt Q13627); assay: as above; settings: >30 = no inhibition at highest concentration tested
Procedure: as §1, §2

PIK4CB = PIK4CB (Homo sapiens, UniProt Q9UBF8); assay: as above; settings: >30 = no inhibition at highest concentration tested
Procedure: as §1, §2

CDK5/p25 = molecular target: T1, CDK5/p25 (Homo sapiens, UniProt Q00535); assay: protein kinase activity assay ([γ-32P] ATP, histone H1); type: biochemical; settings: 15 μM ATP, 30° C.; tested up to 100 μM; read-out: IC50 CDK5/p25
T1 construct: made in house
Procedure: Buffer A: 10 mM MgCl2, 1 mM EGTA, 1 mM DTT, 25 mM Tris-HCl pH 7.5, 50 μg heparin/mL. Buffer C: 60 mM β-glycerophosphate, 15 mM p-nitrophenylphosphate, 25 mM Mops (pH 7.2), 5 mM EGTA, 15 mM MgCl2, 1 mM DTT, 1 mM sodium vanadate, 1 mM phenyl phosphate.
Anticancer activity is commonly associated with the inhibition of kinase enzymes. […] Blank values are subtracted and activities expressed as percent of the maximal activity, i.e. in the absence of inhibitors (Table 4). Controls were performed with appropriate dilutions of DMSO, which was used to dissolve all test compounds.
CDK1/cyclin B (native M phase starfish oocytes), and CDK5/p25 (recombinant human) can be prepared according to the prior art (Meijer, L.; Thunnissen, A. M. W. H.; White, A. W.; Gamier, M.; Nikolic, M., et al. Chem. Biol. 2000, 7, 51-63). […] ATP (3,000 Ci/mmol, 10 mCi/mL) in a final volume of 30 μL. After 30 min. incubation at 30° C., 25 μL aliquots of supernatant are spotted onto 2.5×3 cm pieces of Whatman P81 phosphocellulose paper and, 20 s later, the filters are washed five times (for at least 5 min. each time) in a solution of 10 mL phosphoric acid/L of water. The wet filters are then counted in the presence of 1 mL ACS (Amersham) scintillation fluid.

[1] = tested on: new blood vessel growth from isolated rat aorta fragments; assay: rat aorta fragment vessel outgrowth (anti-angiogenic) assay in fibrin gel; type: cell-based; settings: 120 h, read-out: Anti-Angiogenesis Activity IC50 (concentration that inhibits 50% of the new blood vessel growth); rat aorta fragments, day 5; >100 = no inhibition under the assay conditions
Procedure: A potentially non-toxic method of treating cancer is to inhibit angiogenesis. The human anti-angiogenic and therefore antiproliferative action of drugs can be assessed by many methods well known in the prior art. […] Briefly, thoracic aortas were excized from 3-9 month-old female Fischer rats, cross-sectioned at 1 mm intervals and embedded individually in 0.5 ml of a fibrin gel containing 5 μg/ml of aprotinin (to prevent fibrinolysis) in each well of a 48-well culture plate. Immediately after vessel embedding, 0.5 ml/well of medium M199, supplemented with 20% foetal calf serum, 0.1% E-aminocaproic acid, 1% L-glutamine and antibiotics, was added. Each test compound (10 mg/ml, dissolved in DMSO) was added to the medium (maximum final concentration of test compound 100 μg/ml) and each treatment was performed in six wells. Control cultures received medium containing 0.1% DMSO but without any test compound. […] Vessels were cultured at 37° C. in 5% CO2 in air for 5 days and the medium, with or without test compound, was changed on day 4. Vessel growth was quantified manually under 40× magnification on day 5, with growth being estimated as the percentage of the field (×40) around the vessel fragment that was occupied by vessel outgrowths. By counting the number of vessels formed after 5 days at three to six different concentrations (in triplicate) it is possible to determine an IC50 values for each compound compared to a positive and negative (solvent) control. The percentage inhibition (0-100%) is plotted against compound concentration and a 3-parameter sigmoidal (dose-response) curve fitted (Graphpad Prism v 4) by non-linear regression.

CAMK2G = CAMK2G (Homo sapiens, UniProt Q13555); assay: kinase binding constant, 11-point dose response (T7 phage, qPCR); settings: >30 = no inhibition at highest concentration tested
Procedure: as §1, §2

CDK7 = CDK7 (Homo sapiens, UniProt P50613); assay: as above; settings: >30 = no inhibition at highest concentration tested
Procedure: as §1, §2

PRKCE = molecular target: T2, PRKCE (Homo sapiens, UniProt Q02156); assay: as above; settings: >30 = no inhibition at highest concentration tested
T2 sequence (Q02156 1-737): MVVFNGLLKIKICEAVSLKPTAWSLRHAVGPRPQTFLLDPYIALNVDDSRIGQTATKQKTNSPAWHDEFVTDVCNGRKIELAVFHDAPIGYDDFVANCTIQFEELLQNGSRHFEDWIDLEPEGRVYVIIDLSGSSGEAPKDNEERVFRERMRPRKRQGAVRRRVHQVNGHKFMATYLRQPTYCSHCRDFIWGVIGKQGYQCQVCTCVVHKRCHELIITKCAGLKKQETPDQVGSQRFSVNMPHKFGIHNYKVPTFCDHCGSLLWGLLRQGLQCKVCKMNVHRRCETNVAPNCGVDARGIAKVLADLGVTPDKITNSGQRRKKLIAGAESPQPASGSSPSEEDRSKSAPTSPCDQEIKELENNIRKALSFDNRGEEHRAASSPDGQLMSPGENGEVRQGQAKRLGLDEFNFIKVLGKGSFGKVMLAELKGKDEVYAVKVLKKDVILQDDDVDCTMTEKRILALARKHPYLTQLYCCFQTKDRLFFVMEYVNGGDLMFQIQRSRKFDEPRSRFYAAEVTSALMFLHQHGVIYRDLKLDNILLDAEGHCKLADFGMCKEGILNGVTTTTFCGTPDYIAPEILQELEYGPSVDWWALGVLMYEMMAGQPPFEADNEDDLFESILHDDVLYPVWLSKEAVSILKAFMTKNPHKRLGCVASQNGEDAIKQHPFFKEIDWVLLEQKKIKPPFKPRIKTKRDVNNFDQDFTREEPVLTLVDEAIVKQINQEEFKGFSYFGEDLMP
Procedure: as §1, §2

Chain of CDK7 (P50613 whole entry): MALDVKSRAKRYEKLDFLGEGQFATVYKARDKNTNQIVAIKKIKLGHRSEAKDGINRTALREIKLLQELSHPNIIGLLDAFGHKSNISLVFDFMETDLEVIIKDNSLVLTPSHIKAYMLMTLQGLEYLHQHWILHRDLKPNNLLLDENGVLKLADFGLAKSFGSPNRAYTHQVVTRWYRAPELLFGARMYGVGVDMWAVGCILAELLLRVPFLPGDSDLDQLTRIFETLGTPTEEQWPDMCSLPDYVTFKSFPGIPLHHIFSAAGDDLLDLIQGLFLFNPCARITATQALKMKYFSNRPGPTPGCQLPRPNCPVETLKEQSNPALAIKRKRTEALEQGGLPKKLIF
Chain of YANK2 (Q9NY57 whole entry): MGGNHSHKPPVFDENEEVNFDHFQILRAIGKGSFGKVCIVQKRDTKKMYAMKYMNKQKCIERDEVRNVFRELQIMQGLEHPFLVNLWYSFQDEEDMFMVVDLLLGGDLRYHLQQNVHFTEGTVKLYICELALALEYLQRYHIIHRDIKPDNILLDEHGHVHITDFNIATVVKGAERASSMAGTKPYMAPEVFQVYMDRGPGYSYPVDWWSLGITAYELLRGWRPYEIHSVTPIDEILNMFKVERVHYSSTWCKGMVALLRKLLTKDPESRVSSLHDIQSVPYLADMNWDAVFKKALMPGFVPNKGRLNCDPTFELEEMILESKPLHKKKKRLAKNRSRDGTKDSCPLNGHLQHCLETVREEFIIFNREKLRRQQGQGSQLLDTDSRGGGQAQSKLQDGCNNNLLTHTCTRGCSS
Chain of CAMK2G (Q13555 whole entry): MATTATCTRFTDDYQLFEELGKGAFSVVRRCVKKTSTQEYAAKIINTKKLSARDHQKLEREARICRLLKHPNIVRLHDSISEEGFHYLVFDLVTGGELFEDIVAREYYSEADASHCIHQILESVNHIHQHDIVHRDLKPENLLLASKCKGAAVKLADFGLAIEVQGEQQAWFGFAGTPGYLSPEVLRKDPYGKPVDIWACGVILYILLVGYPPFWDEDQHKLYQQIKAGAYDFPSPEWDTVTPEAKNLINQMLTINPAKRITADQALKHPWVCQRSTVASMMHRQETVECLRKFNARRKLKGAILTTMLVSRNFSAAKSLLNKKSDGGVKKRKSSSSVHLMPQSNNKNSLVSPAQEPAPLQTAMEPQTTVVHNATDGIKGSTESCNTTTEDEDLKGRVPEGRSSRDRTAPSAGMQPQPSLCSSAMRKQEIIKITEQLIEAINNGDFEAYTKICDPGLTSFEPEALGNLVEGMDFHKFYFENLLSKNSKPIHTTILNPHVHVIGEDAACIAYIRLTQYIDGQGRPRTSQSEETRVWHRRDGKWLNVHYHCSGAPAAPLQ
T1 sequence (Q00535 whole entry): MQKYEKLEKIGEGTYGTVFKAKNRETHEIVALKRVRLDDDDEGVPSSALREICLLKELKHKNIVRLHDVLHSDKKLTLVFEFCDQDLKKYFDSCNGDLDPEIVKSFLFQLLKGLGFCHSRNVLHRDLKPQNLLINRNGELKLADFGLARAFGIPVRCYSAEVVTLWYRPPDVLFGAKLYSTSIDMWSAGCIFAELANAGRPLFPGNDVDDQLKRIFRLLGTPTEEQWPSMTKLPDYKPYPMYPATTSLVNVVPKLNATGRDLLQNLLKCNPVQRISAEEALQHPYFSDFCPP
T1 sequence (Q15078 99-307 partner limits assumed): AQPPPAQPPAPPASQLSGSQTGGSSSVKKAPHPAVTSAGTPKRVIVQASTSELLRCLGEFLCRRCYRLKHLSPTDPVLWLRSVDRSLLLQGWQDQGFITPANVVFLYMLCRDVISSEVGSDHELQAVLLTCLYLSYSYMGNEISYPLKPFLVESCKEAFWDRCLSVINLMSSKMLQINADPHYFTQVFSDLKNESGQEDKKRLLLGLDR
Chain of PIK4CB (Q9UBF8 whole entry, species assumed): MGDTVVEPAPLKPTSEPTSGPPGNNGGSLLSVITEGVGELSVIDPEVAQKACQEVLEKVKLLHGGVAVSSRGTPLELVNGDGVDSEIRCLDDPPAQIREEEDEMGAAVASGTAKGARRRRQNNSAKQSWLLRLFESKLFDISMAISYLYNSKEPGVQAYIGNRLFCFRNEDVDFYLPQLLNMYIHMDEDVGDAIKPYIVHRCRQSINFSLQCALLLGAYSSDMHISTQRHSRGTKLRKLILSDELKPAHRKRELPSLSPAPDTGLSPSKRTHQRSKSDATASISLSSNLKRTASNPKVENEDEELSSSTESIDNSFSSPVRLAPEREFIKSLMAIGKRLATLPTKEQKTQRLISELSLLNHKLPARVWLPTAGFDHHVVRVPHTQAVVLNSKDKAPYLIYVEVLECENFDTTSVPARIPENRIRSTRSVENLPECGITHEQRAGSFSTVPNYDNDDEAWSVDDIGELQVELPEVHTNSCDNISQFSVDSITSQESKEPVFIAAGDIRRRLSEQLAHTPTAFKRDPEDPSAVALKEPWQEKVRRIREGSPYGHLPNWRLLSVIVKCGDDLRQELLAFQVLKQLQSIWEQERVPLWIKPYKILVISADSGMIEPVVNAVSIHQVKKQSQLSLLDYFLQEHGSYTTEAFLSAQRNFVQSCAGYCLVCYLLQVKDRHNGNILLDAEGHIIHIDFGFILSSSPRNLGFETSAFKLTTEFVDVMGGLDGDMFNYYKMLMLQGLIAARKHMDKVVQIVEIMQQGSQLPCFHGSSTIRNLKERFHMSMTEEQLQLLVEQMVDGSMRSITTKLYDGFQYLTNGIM

With `Nc1nc2c(-c3cnc4ccccc4c3)nccc2[nH]1` [drawing 36, 4-(quinolin-3-yl)-1H-imidazo[4,5-c]pyridin-2-amine] the Kd (YANK2) was over 30 µM, the Kd (DYRK1A) was 300 nM and the Kd (PIK4CB) was 350 nM.
For `Nc1nc2c(-c3cc(Br)c(Br)[nH]3)nccc2[nH]1` [Ageladine A, ageladine A, reference compound], the IC50 (CDK5/p25) was over 100 µM and the IC50 [1] was 25 µg/mL (≈ 70 µM).
`Nc1nc2c(-c3ccccn3)nccc2[nH]1` [drawing 35, 4-(pyrid-2-yl)-1H-imidazo[4,5-c]pyridin-2-amine] gave a Kd (CAMK2G) of over 30 µM, a Kd (DYRK1A) of 290 nM and a Kd (CDK7) of 7.5 µM. For the same compound, the Kd (PRKCE) was over 30 µM.
